Assay results from ChEMBL document CHEMBL2074317, “Functional characterization of an organic cation transporter (hOCT1) in a transiently transfected human cell line (HeLa)” (J Pharmacol Exp Ther, 1998).

B1: Solute carrier family 22 member 1 (Homo sapiens) (protein)
chain: MPTVDDILEQVGESGWFQKQAFLILCLLSAAFAPICVGIVFLGFTPDHHCQSPGVAELSQRCGWSPAEELNYTVPGLGPAGEAFLGQCRRYEVDWNQSALSCVDPLASLATNRSHLPLGPCQDGWVYDTPGSSIVTEFNLVCADSWKLDLFQSCLNAGFLFGSLGVGYFADRFGRKLCLLGTVLVNAVSGVLMAFSPNYMSMLLFRLLQGLVSKGNWMAGYTLITEFVGSGSRRTVAIMYQMAFTVGLVALTGLAYALPHWRWLQLAVSLPTFLFLLYYWCVPESPRWLLSQKRNTEAIKIMDHIAQKNGKLPPADLKMLSLEEDVTEKLSPSFADLFRTPRLRKRTFILMYLWFTDSVLYQGLILHMGATSGNLYLDFLYSALVEIPGAFIALITIDRVGRIYPMAMSNLLAGAACLVMIFISPDLHWLNIIIMCVGRMGITIAIQMICLVNAELYPTFVRNLGVMVCSSLCDIGGIITPFIVFRLREVWQALPLILFAVLGLLAAGVTLLLPETKGVALPETMKDAENLGRKAKPKENTIYLKVQTSEPSGT

These molecules were tested on CC[N+](CC)(CC)CC (assay: cells, lysate or membranes named).

Molecule	Km [µM]
B1	229

These molecules were tested against T1, Solute carrier family 22 member 1 (Homo sapiens, UniProt O15245) (assay: TP_TRANSPORTER: inhibition of TEA uptake (TEA: 5 uM, Amantadine: 100 uM) in OCT1-expressing HeLa cells).
T1 sequence (O15245 whole entry): B1 chain
Type: functional, cell-based

Molecule	Activity
NC12CC3CC(CC(C3)C1)C2 [AMANTADINE]	inhibitor [(at a rough estimate) 60 % of control]

Each molecule was assayed against T1, Solute carrier family 22 member 1 (assay: TP_TRANSPORTER: inhibition of TEA uptake in OCT1-expressing HeLa cells).
Type: functional, cell-based

Molecule	Ki [µM]
CCN1/C(=C/c2ccc3ccccc3[n+]2CC)C=Cc2ccccc21	2.73
C[n+]1ccc(-c2ccccc2)cc1	12.3
CCCC(=O)Nc1ccc(OCC(O)CNC(C)C)c(C(C)=O)c1 (stereo not given) [ACEBUTOLOL]	95.8
CN/C(=N/CCSCc1nc[nH]c1C)NC#N [CIMETIDINE]	166
Clc1cccc(Cl)c1N=C1NCCN1 [CLONIDINE]	0.55
C[C@]12C[C@H](O)[C@H]3[C@@H](CCC4=CC(=O)CC[C@@]43C)[C@@H]1CC[C@@H]2C(=O)CO [CORTICOSTERONE]	7.02
CNCCCN1c2ccccc2CCc2ccccc21 [DESIPRAMINE]	5.36
Cc1ncc2n1-c1ccc(Cl)cc1C(c1ccccc1F)=NC2 [MIDAZOLAM]	3.7
CNC(=O)c1cccnc1 [NICOTINYL METHYLAMIDE]	7700
CCN(CC)CCNC(=O)c1ccc(N)cc1 [PROCAINAMIDE]	73.9
CCCCC[N+](CCCCC)(CCCCC)CCCCC [TETRAPENTYLAMMONIUM]	7.46
CC[N+](CC)(CC)CC [TETRYLAMMONIUM]	161
CC(=O)O[C@H]1C[C@@H]2CC[C@@H]3[C@H](CC[C@@]4(C)[C@H]3C[C@H]([N+]3(C)CCCCC3)[C@@H]4OC(C)=O)[C@@]2(C)C[C@@H]1N1CCCCC1 [VECURONIUM]	232
